Measurements reported in PMC7822874, “Chemoprotective antimalarials identified through quantitative high-throughput screening of Plasmodium blood and liver stage parasites” (Scientific Reports, 2021).
“And” between values parts separate entries of the source, which are not always exact repeats. Equal entries are not always repeated. Where two headings read alike, the source gives them in different places.

What was measured:
[1] = biological target: Firefly luciferase (Fluc, EC 1.13.12.7) (Photinus pyralis, UniProt P08659); test: biochemical; parameters: single determination (the paper says generally: 'qHTS assays were performed in a single replicate with a 7- to 11-point dose response format'; it is not stated for this counterscreen itself)
[2] = tested on: P. falciparum Dd2 Cytb A122D; test: SYBR Green ABS proliferation assay, NCGC00473217 selected clone F12; type: cell-based, Plasmodium falciparum; conditions: Plasmodium falciparum, DD2, […]; averaged from three independent replicates; top concentration 29 µM; read-out: Average AC50 (Log[M]), NCGC00473217 clone F12 (Cytb A122D) (converted)
Procedure, shortened: (§1)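 Drug-selected Dd2 clones bearing the cytochrome b mutation were cultured at 37 °C under 5% CO2, 5% O2, 90% N2. Growth was read at 72 h by SYBR Green-I fluorescence, normalized to controls as percent response.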

[3] = tested on: T1, Plasmodium falciparum Dd2-attB (parental line), asexual blood stages; test: microbe, parasite or virus in culture; parameters: species or system P. falciparum Dd2-attB in human erythrocytes; SYBR Green-I proliferation assay, Dd2-attB parental line, asexual blood stages; conditions: 72 h; for AC50: Plasmodium falciparum, DD2, Erythrocyte, read-out: Calculated / Average Log AC50 (M), mean of replicates, 72 h (converted)
T1 construct: Dd2-attB, the isogenic parental line

[4] = tested on: P. falciparum Dd2 Cytb G131S; test: SYBR Green ABS proliferation assay, NCGC00374598 selected clone C11; type: cell-based, Plasmodium falciparum; conditions: Plasmodium falciparum, DD2, […]; averaged from three independent replicates; top concentration 29 µM; read-out: Average AC50 (Log[M]), NCGC00374598 clone C11 (Cytb G131S) (converted)
Procedure, shortened: as §1

[5] = tested on: P. falciparum Dd2 (clone B2) asexual blood stage parasites; test: P. falciparum Dd2 asexual blood stage SYBR Green-I 72 h proliferation assay (qHTS); type: cell-based, Plasmodium falciparum; conditions: Plasmodium falciparum, DD2, Dd2 parental; Hill fit, averaged from three independent replicates; top concentration 29 µM; read-out: Average AC50 (Log[M]), Dd2 (converted)
[6] = tested on: T1, Plasmodium falciparum Dd2-attB (parental line), asexual blood stages; test: microbe, parasite or virus in culture; parameters: replicate k of 3 (each line is one of three independent assays; the three lines of one compound and parasite line follow each other); conditions: n = 1; for Individual replicates / Log AC50 (M): 72 h; for AC50: Plasmodium falciparum, DD2, 72 h, read-out: Individual replicates / Log AC50 (converted)
Procedure, shortened: (§2)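 We compare activity in parasites carrying fumarate-using yeast DHODH with that in the parental line; mETC or parasite DHODH inhibitors are bypassed by this enzyme. Data come from three independent assays, analysed by two-sided Student's t-tests.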

[7] = tested on: P. falciparum Dd2 Cytb V259L; test: SYBR Green ABS proliferation assay, NCGC00473217 selected clone F06; type: cell-based, Plasmodium falciparum; conditions: Plasmodium falciparum
Procedure, shortened: as §1

[8] = tested on: P. falciparum Dd2 Cytb F123L; test: SYBR Green ABS proliferation assay, NCGC00473217 selected clone G08; type: cell-based, Plasmodium falciparum; conditions: Plasmodium falciparum
Procedure, shortened: as §1

[9] = tested on: T2, Plasmodium falciparum Dd2-attB-ScDHODH (transgenic line expressing yeast DHODH), asexual blood stages; test: organism not typed; parameters: replicate k of 3 (each line is one of three independent assays; the three lines of one compound and parasite line follow each other); conditions: 72 h, n = 1; for AC50: read-out: Individual replicates / Log AC50 (converted)
T2 construct: Dd2-attB-ScDHODH, the transgenic line that expresses yeast DHODH
Procedure, shortened: as §2

[10] = tested on: luciferase-expressing P. berghei liver stage parasites in HepG2 cells; test: Inhibition of liver-stage development assay (ILSDA), Method 2 (WRAIR, 96-well); type: cell-based, Plasmodium berghei
[11] = tested on: Plasmodium falciparum Dd2 asexual blood stage parasites; test: microbe, parasite or virus in culture; parameters: species or system Plasmodium falciparum Dd2 in human erythrocytes; single determination (one 11-point concentration-response curve); conditions: Plasmodium falciparum, DD2, Erythrocyte, 72 h; read-out: AC50
[12] = tested on: P. berghei-ANKA-GFP-LucCON liver stage parasites in HepG2-A16-CD81EGFP cells; test: P. berghei liver stage Pb-Luc assay, Method 1 (UCSD, 1536-well); type: cell-based, Plasmodium berghei; conditions: Method 1; for Max Resp (signal direction of the dose response): Decrease = decreasing P. berghei viability with dose, Increase = increasing signal, Inactive = no dose response
[13] = Hill fit, 50% of maximum activity response, read-out: AC50
[14] = log10 of molar AC50 from Hill fit
[15] = Plasmodium berghei, Hill fit, 50% of maximum activity response, read-out: AC50
[16] = Plasmodium berghei, log10 of molar AC50 from Hill fit, read-out: Log AC50 (converted)

Chain of Firefly luciferase (Fluc, EC 1.13.12.7) (P08659 whole entry): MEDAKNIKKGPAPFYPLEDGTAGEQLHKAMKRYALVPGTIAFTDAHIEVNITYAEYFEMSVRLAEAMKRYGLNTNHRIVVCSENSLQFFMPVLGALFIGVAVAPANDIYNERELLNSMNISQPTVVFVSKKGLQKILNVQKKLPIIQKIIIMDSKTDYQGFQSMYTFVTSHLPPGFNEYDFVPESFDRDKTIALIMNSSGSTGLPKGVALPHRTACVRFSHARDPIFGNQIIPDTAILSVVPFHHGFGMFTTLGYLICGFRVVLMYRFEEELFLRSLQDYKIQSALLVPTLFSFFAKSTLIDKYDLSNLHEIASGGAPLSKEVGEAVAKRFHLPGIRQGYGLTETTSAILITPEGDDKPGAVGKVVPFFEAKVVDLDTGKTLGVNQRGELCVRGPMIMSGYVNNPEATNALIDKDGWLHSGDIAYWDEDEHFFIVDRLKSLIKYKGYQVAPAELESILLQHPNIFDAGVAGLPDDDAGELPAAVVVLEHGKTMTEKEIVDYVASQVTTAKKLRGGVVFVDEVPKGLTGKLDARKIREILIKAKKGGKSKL

Compound	AC50 [3]	Individual replicates / Log AC50 (M) [6]	AC50 [6]	Individual replicates / Log AC50 (M) [9]	AC50 [9]	further results
CC1(C)Cc2nc3sc4c(SCC(=O)O)ncnc4c3cc2CO1 [MLS000778156-01]	–	–	–	–	–	AC50 [1]: 10.8 µM
Cc1cc(C(N)=NOC(=O)c2ccccc2Cl)no1 [MLS000833967-01]	–	–	–	–	–	AC50 [1]: 13.6 µM
CCCN1C(CC(C)C)=N[S+](=O)([O-])c2cc(NC(=O)C3CC3)ccc21 [NCGC00510045-01]	1.22e-06 M	-5.8486 Log AC50 (M)	0.894 µM	-5.2986 Log AC50 (M) and -5.4486 Log AC50 (M)	3.99 µM	AC50 [2]: 4.32e-06 M; AC50 [4]: 3.99e-06 M; AC50 [5]: 4.32e-06 M; AC50 ([7]; DD2, […], averaged from three independent replicates, top concentration 29 µM, read-out: Average AC50 (Log[M]), NCGC00473217 clone F06 (Cytb V259L) (converted)): 3.05e-06 M; AC50 ([8]; DD2, […], averaged from three independent replicates, top concentration 29 µM, read-out: Average AC50 (Log[M]), NCGC00473217 clone G08 (Cytb F123L) (converted)): 1.12e-05 M
CC(C)(C)OC(=O)N1CCc2nc(C3CC3)nc(O)c2CC1 [NCGC00510066-01]	8.94e-06 M	–	–	–	–	AC50 ([7]; DD2, cytochrome b mutant line, third value triple, c9, […], read-out: log AC50, mean (converted)): 8.93e-09 M; AC50 ([8]; DD2, cytochrome b mutant line, fifth value triple, c15, […], read-out: log AC50, mean (converted)): 2.99e-06 M
O=C(Cc1ccc(O)cc1)N1CC(CNc2ccccc2)C2(C1)CN(c1ccccc1)C2 (stereo not drawn) [NCGC00415859-01]	1.63e-07 M	-6.8373 Log AC50 (M) and -6.9373 Log AC50 (M) and -6.5873 Log AC50 (M)	–	-6.4873 Log AC50 (M) and -6.7373 Log AC50 (M) and -6.8873 Log AC50 (M)	–	Activity direction (Decrease / Inactive) ([10]; P. berghei liver stage, Method 2, dose response): Inactive; AC50 [11]: 0.243 µM; Max Resp (signal direction of the dose response) [12]: Decrease; AC50 [12, 13]: 0.631 µM; Log AC50 (M) [12, 14]: -6.200 M; AC50 [12, 15]: 0.447 µM; AC50 [12, 16]: 0.447 µM
O=C(O)c1ccnc(-n2ncc(C(OCCN3CCCCC3)c3ccccc3Cl)c2-c2cccc(-c3ccccc3)c2)c1 (stereo not drawn) [NCGC00481640-01]	–	-5.0486 Log AC50 (M) and -4.8986 Log AC50 (M) (2×)	–	-4.7986 Log AC50 (M) and -4.8486 Log AC50 (M)	–	Calculated / Average Log AC50 (M) ([3]; mean of replicates, inhibitor, Calculated / Average Log AC50 (M)): -4.9486 M
Oc1ccc(/C=C/c2c(F)cccc2F)c2cccnc12 [NCGC00184904-01]	1e-05 M	-5.0986 Log AC50 (M) and -5.0486 Log AC50 (M)	14.2 µM	-4.7486 Log AC50 (M) and -4.7986 Log AC50 (M)	–	–
Cc1ccc(NC(=O)C(N[S+](=O)([O-])c2ccc3c(c2)CCC(=O)N3)c2ccccc2)cc1C (stereo not drawn) [NCGC00110290-01]	1.59e-05 M	–	17.8 µM	–	8.94 µM	–
C=C[S+](=O)([O-])N1CCCN(c2cc(N(CCC(=O)O)[S+](=O)([O-])C=C)nc(-c3ccccn3)n2)CC1 [NCGC00420875-01]	1.53e-05 M	–	11.3 µM	–	15.9 µM	–
COc1ccc(-n2ncc(C(=O)N3CCc4ccccc4C3)c2C2CCN(C(=O)OC(C)(C)C)CC2)cc1 [NCGC00127123-02]	7.97e-06 M	-5.2486 Log AC50 (M) and -4.9986 Log AC50 (M)	8.94 µM	-4.7986 Log AC50 (M) and -4.8486 Log AC50 (M)	14.2 µM	–
O=C1C(c2ccc(C(F)(F)F)cc2)=C(Nc2ccc(Cl)cc2)c2ccccc21 [NCGC00107304-01]	7.1e-07 M	-6.0986 Log AC50 (M)	0.564 µM	-5.0986 Log AC50 (M) and -5.1486 Log AC50 (M) and -5.3986 Log AC50 (M)	–	Max Resp (signal direction of the dose response) ([10]; Method 2, Decrease = decreasing P. berghei viability with dose, Increase = increasing signal, Inactive = no dose response): Inactive; AC50 [11]: 1.5 µM; Max Resp (signal direction of the dose response) [12]: Decrease; AC50 [12, 13]: 0.282 µM; Log AC50 (M) [12, 14]: -6.550 M; AC50 [12, 15]: 0.158 µM; AC50 [12, 16]: 0.158 µM
CC(NCCN1CCCCC1)c1cnn(-c2cc(CO)ccn2)c1-c1cccc(-c2ccccc2)c1 (stereo not drawn) [NCGC00479100-01]	3.99e-06 M	–	8.94 µM	–	8.94 µM	–
O=C(NCc1cccnc1)c1cccc(-c2cc(O)c3ncccc3c2)c1 [NCGC00244537-01]	1.31e-05 M	-4.7986 Log AC50 (M)	7.97 µM	-4.8486 Log AC50 (M)	8.94 µM	–
O=[S+]([O-])(Nc1ccc(O)c2ncccc12)c1ccccc1F [NCGC00184887-02]	1e-05 M	-4.8986 Log AC50 (M) and -5.0486 Log AC50 (M) (2×)	–	-4.9486 Log AC50 (M) and -4.8486 Log AC50 (M)	–	–
CCOC(=O)c1c2ccc(C(=O)N3CCOCC3)cc2n2ccccc12 [NCGC00390098-01]	1.26e-05 M	-5.0486 Log AC50 (M)	14.2 µM	–	7.1 µM	–
O=[S+]([O-])(c1nc2ccccc2[nH]1)N(CCc1ccccc1)CCN1CCCCC1 [NCGC00389114-01]	4.15e-06 M	-5.5486 Log AC50 (M) (2×) and -5.0486 Log AC50 (M)	–	-5.6986 Log AC50 (M) and -5.2486 Log AC50 (M)	–	–
COC(=O)c1ccnc2cc(C(OCCN3CCCCC3)c3ccccc3Cl)sc12 (stereo not drawn) [NCGC00481502-01]	1.26e-05 M	-5.0486 Log AC50 (M) and -4.8486 Log AC50 (M)	15.9 µM	-4.7486 Log AC50 (M)	17.8 µM	–
Oc1ccc(CNc2cc(Br)ccn2)c2cccnc12 [NCGC00241030-01]	6.58e-06 M	-5.2486 Log AC50 (M) and -5.0486 Log AC50 (M)	5.64 µM	-5.2486 Log AC50 (M) and -5.1986 Log AC50 (M) and -4.8986 Log AC50 (M)	–	–
CCOC(=O)c1ccc(O)c2ncc(N3CCNCC3)cc12 [NCGC00241046-01]	5.86e-06 M	-5.2986 Log AC50 (M) and -5.0986 Log AC50 (M)	5.03 µM	-5.3486 Log AC50 (M)	5.03 µM	–
O=C1c2ccccc2C(=O)C1c1ccc(C(F)(F)F)cc1 [NCGC00510065-01]	1.36e-05 M	-4.7486 Log AC50 (M) (2×) and -5.0986 Log AC50 (M)	–	-4.6986 Log AC50 (M) and -4.7486 Log AC50 (M)	17.8 µM	–
CN(C)CCCNC(=O)c1cccc(-c2cc(O)c3ncccc3c2)c1 [NCGC00244527-01]	1.22e-05 M	-5.0486 Log AC50 (M) and -4.8486 Log AC50 (M)	14.2 µM	-4.7986 Log AC50 (M)	8.94 µM	–
CCOC(=O)c1ccc(O)c2ncc(N3CCC(C(=N)N)CC3)cc12 [NCGC00241051-01]	1.08e-05 M	-5.1486 Log AC50 (M)	12.6 µM	-4.7486 Log AC50 (M) and -4.8986 Log AC50 (M)	–	–
COc1cccc(NCc2ccc(O)c3ncccc23)n1 [NCGC00241024-01]	1.13e-05 M	-4.8986 Log AC50 (M) and -5.0486 Log AC50 (M)	12.6 µM	-4.8486 Log AC50 (M)	12.6 µM	–
NC1CCN(c2cnc3c(O)ccc(C(=O)O)c3c2)CC1 [NCGC00241035-01]	1.42e-05 M	-4.7986 Log AC50 (M) and -4.9986 Log AC50 (M)	17.8 µM	–	17.8 µM	–
